“Also recorded” adds a separate entry of the source. Read-outs that look alike come from different tables or passages of the source.
Tests used:
[1] = dog, in vivo
in vivo [2] = conditions: rat, in vivo
Text: (2) apparatus: Model WFX-1B Spectrophotometer of Atomic Absorption was produced by The Second Optical Apparatus Factory of Beijing, 83114; P-E 3030 Spectrophotometer of Atomic Absorption was produced by Perkin-Elmer Corp.,USA;DT-100 Single-Pan Balance (1/10^4) was produced by Beijing Optical Apparatus Factory; TJ-6 Centrifuge was produced by Beckman, USA; Model MVS-1 Vortex Mixer was produced by Beijing Beide Scientific Apparatus and Materials Co. Ltd.
Twelve hours after the animals had been fasted, 0.5 mL plasma was sampled by excising eyeballs. The plasma was established as the blank group. Then rats were administered agents once in an amount of 20 mL/kg body weight by pouring into the stomach. 0.5 mL plasma was sampled by taking from eyeballs 0.25,0.5,1,1.5,2,3,4,6,8,12 and 16 hours later after the administration. […] The concentration of calcium was measured by a Model WFX-1B Spectrophotometer of Atomic Absorption.

in vivo [3] = conditions: dog, po, 200 mg/kg
[4] = system: castrated male rats with osteoporosis; conditions: for bone mineral density F50: model-control 0.235 ± 0.022; for bone mineral density F20: model-control 0.244 ± 0.025
Text: (4) Measurement of bone mineral density.

[5] = system: ovariectomized rats with osteoporosis; test: Test II: bone mineral density of femur in ovariectomized rats; conditions: for bone density F50: center of femur; for bone density F20: proximal position 20%, model-control 0.256 ± 0.022
Protocol: Female 3-month-aged rats which had been excised of bilateral ovaries under sterilized condition were fed for a week until their wound was cured. Seventy healthy rats were selected and divided randomly into five groups of 14 rats. […] Group 1-5 were administered one time per day and 6 times per week and were also fed low-calcium diet and de-ionized water. The test period was 75 days. […] The bilateral femurs of rats were stripped off and stored in refrigerator. After the measurement of the bone mineral density, the left femur was stored for analysis of biomechanical characteristics.
(4) Measurement of bone mineral density. Fresh femur iced in refrigerator was measured of bone mineral content at the center (F50) and the proximal position 20% (F20) of femur by single photon absorptiometry (Model BMD400GI) with a scanning speed of 0.25 mm/s and a precision degree of 99%, the Apparatus was proofread using a standard apparatus provided by Jishuitan Hospital, Beijing. The data was processed by software used clinically. The bone mineral content was expressed by a unit of bone mineral content per square centimeter (BMC/cm^2).

[6] = system: ovariectomized rats with osteoporosis; test: Test II: dry femur weight, ash weight and calcium content in ovariectomized rats; conditions: for ash weight: model-control 282.3 ± 30.5; for calcium content: model-control 341.9 ± 43.9; for dry femur weight: model-control 493.4 ± 28.1
Protocol: Female rats at the age of 3 months were excised of bilateral ovaries under sterilized condition, and were then fed low-calcium diet and offered with deionized water for 75 days, thus made an osteoporosis model.
Female 3-month-aged rats which had been excised of bilateral ovaries under sterilized condition were fed for a week until their wound was cured. Seventy healthy rats were selected and divided randomly into five groups of 14 rats. […] Group 1-5 were administered one time per day and 6 times per week and were also fed low-calcium diet and de-ionized water. The test period was 75 days. […] The bilateral femurs of rats were stripped off and stored in refrigerator. […] The right femur was stored for analysis of Ca content in femur.
After pulled off soft tissue, the right femur was dried for 5 hours in oven at the temperature of 120° C. until its weight kept a constant (dry weight), then the product was baked for 6 hours in muffle furnace at the temperature of 800° C. until the weight of the product kept a constant which was the ash weight, namely the total amount of inorganic salts. After part of the ash was resolved in dilute hydrochloride, the calcium content of ash was measured by the method of EDTA titration. All data was expressed as X±SD(n). The significance of differences between groups were assessed using the "T-test" method of two groups of small specimen.

[7] = Solubility of calcium L-threonate; format: physicochemical
[8] = system: castrated male rats with osteoporosis; conditions: for K (calcification of bone): model-control 1.50 ± 0.26; for P (strength of femur): model-control 5.2 ± 1.1; for Y (flexibility, tenacity): model-control 8.0 ± 1.2; for S (work to break the bone): model-control 24.5 ± 7.5
Protocol: Three-point bending test was done on the fresh femur iced in refrigerator with a Model WD-1 Electron Universal Test Machine under the following conditions: a span of 2.5 cm, a 25 kg sensor (1/50), a speed of 2 mm/minute. The function of load versus flexibility was recorded by a finction recorder, wherein P represented the maximum of force at yielding point, Y was flexibility indicating the tenacity of materials. K, as the rate of slope, was a rigidity parameter of materials and was associated with the degree of calcification in bone mechanics. S stood for the work to yield or break femur.
In this test, chemicals were the saine as in test II, animals were male Wistar rats each weighing 150±10 g and were provided by Animal Center of the National Institute for the Identification of Pharmaceuticals and Biological Products, Beijing. The breeding of the rats was the same as in test II.
The male rats each weighing 150±10 g were excised of bilateral spermaries and were fed low-calcium diet and offered deionized water for 60 days, thus made a model of osteoporosis.
Seventy of the castrated male rats were divided into groups and tested in the same manner as Test II but the days of administration were 52 days during the 60 days of test.
In this test, the measuring methods for serum Ca, P, AKP levels, the bone mineral density, the length of femur, wet weight, dry weight, ash weight, the calcium content and the biomechanics of femur were all the same as in test II.

rickets-mice [9] = test: Preventing rickets in younger mice: tibia strength (three-point bending); format: in vivo, mice of Kunming species; conditions: for breaking force (tibia): model 1.12 ± 0.37
Protocol: (§1) The mice were bred for 60 days under conditions of avoiding light around-the-clock, at a temperature of 20-25° C. and a relative humility of 40-60% while the normal-control group mice were fed ordinary diet and water and were placed in non-dark room.
(§2) The low-calcium diet used in this test was the same as that in Test II but VD in the vitamin mixture was replaced by glucose.
(§3) Some weanling mice were placed in dark room and fed VD -deficient low-calcium diet and drunk de-ionized water for 60 days, thus a ricket model of baby mice was prepared. While other weanling mice were placed in non-dark room and fed ordinary diet and drunk tap water for 60 days, these mice were established as normal-control group.

[10] = system: castrated male rats with osteoporosis; conditions: for serum Ca: model 1.80 ± 0.37; for serum P: model 2.03 ± 0.48; for AKP level in serum (in Bessey-Loury unit): model 96.7 ± 26.4
Protocol: Serum Ca, P and AKP were measured by a 4010 Automatic Biochemical Analyzer. Serum Ca was determined by calorimetric method using methylthymol blue. Serum P was determined by Mono-Reagent Method. Alkaline phosphatase was determined by method of disodium p-nitrophenylphosphonate (AKP) The tartaric-resistant acidic phosphatase (Tr-ACP) mineral was determined by Piedra procedure. All above reagent-box were available from the Clinical Chemicals Sub-plant of Beijing Chemical Plant.
The pure synthetic low-calcium diet and apparatus used in this test were the same as in test II.

rickets-mice [11] = test: Preventing rickets in younger mice: serum Ca, AKP, P; format: in vivo, mice of Kunming species; conditions: for serum Ca / serum P / serum AKP (in Bessey-Loury unit): 60 days; for serum Ca: model 1.55 ± 0.42; for serum P: model 2.23 ± 0.52; for serum AKP (in Bessey-Loury unit): model 101 ± 34
Protocol: as §1, §2, §3

SMILES: O=C(O)[C@H](O)[C@@H](O)CO [calcium L-threonate]
- kinetic change of serum levels and pharmaceutical dynamic parameters (in words) [1]: consistent with those of rats
- absorption rate constant ka (in vivo [2]): 6.14 h⁻¹
- CL/F (in vivo [2]; po): 17.3 mL/min/kg
- Vd/F (in vivo [2]; po): 6.69 L/kg
- AUC (in vivo [2]; po, 200 mg/kg): 192 µg·h/mL
- Cmax (in vivo [2]; po, 200 mg/kg): 27200 ng/mL
- half-life (in vivo [2]; po, 200 mg/kg): 4.45 h
- Tmax (in vivo [2]; po, 200 mg/kg, Tmax): 0.797 h
- Tmax (in vivo [3]): 1.21 h
- concentration at 0.5 h (in vivo [3]): 23100 ± 2680 ng/mL
- concentration at 1 h (in vivo [3]): 35900 ± 4410 ng/mL
- concentration at 2 h (in vivo [3]): 74040 ± 500 ng/mL
- concentration at 3 h (in vivo [3]): 46000 ng/mL
- concentration at 4 h (in vivo [3]): 17200 ng/mL
- concentration at 6 h (in vivo [3]): 9990 ng/mL
- concentration at 8 h (in vivo [3]): 4660 ng/mL
- concentration at 12 h (in vivo [3]): 2800 ng/mL
- concentration at 16 h (in vivo [3]): 4300 ng/mL
- concentration at 24 h (in vivo [3]): 3990 ng/mL
- half-life (in vivo [3]): 3.57 h
- bone mineral density F50 ([4]; 100 mg element calcium/kg/d): 0.255 ± 0.025 BMC/BW
- bone mineral density F20 ([4]; 100 mg element calcium/kg/d): 0.297 ± 0.037 BMC/BW
- bone mineral density F50 ([4]; 200 mg element calcium/kg/d): 0.269 ± 0.019 BMC/BW
- bone mineral density F20 ([4]; 200 mg element calcium/kg/d): 0.308 ± 0.020 BMC/BW
- bone mineral density F50 ([4]; 300 mg element calcium/kg/d): 0.274 ± 0.018 BMC/BW
- bone mineral density F20 ([4]; 300 mg element calcium/kg/d): 0.327 ± 0.033 BMC/BW
- bone density F50 ([5]; 100 mg element calcium/kg/d): 0.289 ± 0.021 BMC/BW
- bone density F20 ([5]; 100 mg element calcium/kg/d): 0.288 ± 0.021 BMC/BW
- bone density F50 ([5]; 200 mg element calcium/kg/d): 0.282 ± 0.020 BMC/BW
- bone density F20 ([5]; 200 mg element calcium/kg/d): 0.315 ± 0.032 BMC/BW
- bone density F20 ([5]; 300 mg element calcium/kg/d): 0.314 ± 0.020 BMC/BW
- bone density effect (in words) ([5]; versus model-control group): markedly higher than that of model-control group rats
- ash weight ([6]; 100 mg element calcium/kg/d): 308.5 ± 11.4 mg
- calcium content ([6]; 100 mg element calcium/kg/d): 387.8 ± 91.9 mg/g dry weight
- dry femur weight ([6]; 100 mg element calcium/kg/d): 517 ± 21.8 mg
- ash weight ([6]; 200 mg element calcium/kg/d): 325.3 ± 23.5 mg
- calcium content ([6]; 200 mg element calcium/kg/d): 455.1 mg/g dry weight
- dry femur weight ([6]; 200 mg element calcium/kg/d): 553.0 ± 38.1 mg
- ash weight ([6]; 300 mg element calcium/kg/d): 332.4 ± 13.0 mg
- calcium content ([6]; 300 mg element calcium/kg/d): 445.7 mg/g dry weight
- dry femur weight ([6]; 300 mg element calcium/kg/d): 546.6 ± 22.8 mg
- loss of bone matrix (in words) ([6]; rat, in vivo): retard the loss of bone matrix; also recorded: markedly control and inhibit the loss of bone matrix
- solubility in alcohol, ether and chloroform ([7]; alcohol, ether, chloroform): not in alcohol, ether and chloroform
- solubility in water ([7]; water): can be solved in water
- K (calcification of bone) ([8]; 100 mg element calcium/kg/d): 2.05 ± 0.25
- P (strength of femur) ([8]; 100 mg element calcium/kg/d): 7.6 ± 1.1
- Y (flexibility, tenacity) ([8]; 100 mg element calcium/kg/d): 7.3 ± 1.6
- S (work to break the bone) ([8]; 100 mg element calcium/kg/d): 29.7
- K (calcification of bone) ([8]; 200 mg element calcium/kg/d): 2.27 ± 0.42
- P (strength of femur) ([8]; 200 mg element calcium/kg/d): 8.7 ± 1.2
- Y (flexibility, tenacity) ([8]; 200 mg element calcium/kg/d): 6.6 ± 1.1
- S (work to break the bone) ([8]; 200 mg element calcium/kg/d): 28.3
- K (calcification of bone) ([8]; 300 mg element calcium/kg/d): 2.52 ± 0.22
- P (strength of femur) ([8]; 300 mg element calcium/kg/d): 9.3 ± 0.9
- Y (flexibility, tenacity) ([8]; 300 mg element calcium/kg/d): 6.3 ± 1.0
- S (work to break the bone) ([8]; 300 mg element calcium/kg/d): 28.7 ± 7.8
- P,K,S values (in words) ([8]; rat, in vivo): markedly increased in contrast to those of the model group rats
- breaking force (tibia) (rickets-mice [9]; 200 mg calcium element): 1.49 ± 0.38 kg
- breaking force (tibia) (rickets-mice [9]; 300 mg calcium element): 1.59 ± 0.27 kg
- breaking force of tibia (in words) (rickets-mice [9]; mouse, in vivo): significantly higher than those for the model group and were comparable with those for the normal-control group
- serum Ca ([10]; 100 mg element calcium/kg/d): 1.97 ± 0.52 mmol/L
- serum P ([10]; 100 mg element calcium/kg/d): 1.87 ± 0.39 mmol/L
- AKP level in serum (in Bessey-Loury unit) ([10]; 100 mg element calcium/kg/d): 88.3 ± 13.7 U/L
- serum Ca ([10]; 200 mg element calcium/kg/d): 2.20 ± 0.60 mmol/L
- serum P ([10]; 200 mg element calcium/kg/d): 1.78 ± 0.55 mmol/L
- AKP level in serum (in Bessey-Loury unit) ([10]; 200 mg element calcium/kg/d): 59.2 ± 12.0 U/L
- serum Ca ([10]; 300 mg element calcium/kg/d): 2.17 ± 0.62 mmol/L
- serum P ([10]; 300 mg element calcium/kg/d): 1.48 ± 0.55 mmol/L
- AKP level in serum (in Bessey-Loury unit) ([10]; 300 mg element calcium/kg/d): 56.1 ± 6.2 U/L
- serum calcium effect (in words) ([10]; rat, in vivo): significantly higher than that of model group
- serum Ca (rickets-mice [11]; 200 mg calcium element): 2.33 ± 0.82 mmol/L
- serum P (rickets-mice [11]; 200 mg calcium element): 1.52 ± 0.45 mmol/L
- serum AKP (in Bessey-Loury unit) (rickets-mice [11]; 200 mg calcium element): 59.3 ± 14 U/L
- serum Ca (rickets-mice [11]; 300 mg calcium element): 2.17 ± 0.82 mmol/L
- serum P (rickets-mice [11]; 300 mg calcium element): 1.35 ± 0.34 mmol/L
- serum AKP (in Bessey-Loury unit) (rickets-mice [11]; 300 mg calcium element): 43.1 ± 14 U/L
- serum Ca effect (in words) (rickets-mice [11]; high and low dosage): approximate to that of the normal-control group but were much higher than those of the model group
- serum AKP effect (in words) (rickets-mice [11]; mouse, in vivo): much lower than those of the model group
